Test results taken from patent US20230413814A1, “A METHOD FOR REMOVING A BIOFILM” (TECHNOLOGICAL UNIVERSITY DUBLIN, priority 2020, published 2023).

Columns and labels:
[1] = tested on: human periodontal ligament cells (hPDLCs); set-up: dose or concentration left out as unconfirmed; conditions: exposed for 24 and 48 hours; cited from earlier work
[2] = tested on: Klebsiella pneumoniae NCIMB 418; experiment: Biofilm formation in 96 well plate, crystal violet assay; type: cell-based; conditions: for reduction of biofilm formation versus control: 24 hours, 37° C., FIG. 1 A
Procedure: (§1) FIG. 1: The effect of varying concentrations of DHA on the ability of Klebsiella pneumoniae NCIMB 418 (A) and Enterococcus faecalis ATCC 7080 (B) to form a biofilm in vitro. (10^6 CFU/well was incubated with various concentrations of DHA in a 96 well plate for 24 hours statically at 37° C. Biofilm formation was assessed using the crystal violet assay. Data represents the mean±SD for six independent experiments, carried out in triplicate. One-way ANOVA was performed for statistical analysis. *****P<0.001 compared to both the control (no DHA) and vehicle control (1% DMSO).
(§2) The effect of varying concentrations of DHA on the ability of Klebsiella pneumoniae NCIMB 418 and Enterococcus faecalis ATCC 7080 to form a biofilm in vitro was investigated. 10^6 CFU/well was incubated with various concentrations of DHA in a 96 well plate for 24 hours statically at 37° C. Biofilm formation was assessed using the crystal violet assay. Data represents the mean±SD for six independent experiments, carried out in triplicate. The assay involved seeding cells at 10^6 CFU/ml in media with DHA. Cells were then left for 24 hrs to form biofilms before washing and staining with Crystal Violet. Crystal violet adhered to cells stuck to the sides of the tube/well. The samples were washed again to remove any unbound dye before dissolving the stain in acetic acid and the reading was measured in a spectrophotometer. The colour intensity relates to the level of biofilm present. The more colour the more bacteria in the biofilm (Merrit, J. H, et al., (2005) “Growing and Analysing Static Biofilms”, Current Protocols in Microbiology, Chapter 1(July), p. Unit 1B.1.).

[3] = tested on: Enterococcus faecalis ATCC 7080; experiment: as above; type: cell-based; conditions: for reduction of biofilm formation versus control: 24 hours, 37° C., FIG. 1 B
Procedure: as §1, §2

[4] = tested on: human gingival fibroblasts (HGFs); set-up: dose or concentration left out as unconfirmed; conditions: exposed for 24 and 48 hours; cited from earlier work
[5] = summary statement on FIG. 1, concentration not stated

For `CC/C=C\C/C=C\C/C=C\C/C=C\C/C=C\C/C=C\CCC(=O)O` [DHA, docosahexaenoic acid], the cytotoxic effects [1] is listed as “exhibited cytotoxic effects”, the “reduction of biofilm formation versus control” value (shortened to “reduction”) ([2]; DHA 6.25 μM) is listed as ~40% and the “reduction” value ([2]; DHA 100 μM) is listed as ~65%. The reducing biofilm formation [2, 5] was “approximately 60%”, the “reduction” value ([3]; DHA 6.25 μM) was ~20% and the “reduction” value ([3]; DHA 100 μM) was ~65%. The reducing biofilm formation [3, 5] was “approximately 60%” and the cytotoxic effects [4] was “exhibited cytotoxic effects”.
